One test addresses Factor XIa (Homo sapiens, UniProt P03951). The test can be described thus: Factor XIa inhibition assay utilizing a fluorophore-quencher pair peptide substrate (FLINT). It is filed as biochemical. The note with it: 11-point, 3-fold serial dilution, top 100 nM; 30 min preincubation; 15 μM 5Fam-KLTRAETV-K5Tamra substrate; kinetic reads over 30 min; read-out: FXIa Inhibition IC50. An excerpt:
Biological Example 1: Factor XIa Inhibition Assay Utilizing a Fluorophore-Quencher Pair Peptide Substrate
A fluorescence intensity (FLINT) based assay was used to monitor inhibition of Factor XIa. The peptide substrate, 5Fam-KLTRAETV-K5Tamra (purchased from New England Peptide) was chosen based on the FXI sequence. Conversion of zymogen FXI to its activated form, FXIa, occurs by proteolytic cleavage by […] at two sites, Arg146 and Arg180. The custom peptide used in this assay was based on the Arg146 cleavage site of FXI. The peptide substrate was designed with a fluorophore-quencher pair, where the fluorescence is quenched until FXIa cleaves the 8-mer peptide after the Arg residue.
The Factor XIa FLINT assay was used with the following 5Fam-KLTRAETV-K5Tamra assay buffer: 50 mM Tris, pH 7.5, 100 mM NaCl, 5 mM CaCl2, 0.1 mg/mL BSA, 0.03% CHAPS. Assay buffer was prepared by mixing all ingredients fresh. 5Fam-KLTRAETV-K5Tamra peptide substrate was first prepared at 10 mM in 100% DMSO, then diluted to 3 mM in 100% DMSO. Assay buffer was then added directly to the 3 mM stock of substrate to prepare the 30 μM 2× working concentration (15 μM final concentration). The 2× Factor XIa stock solution was prepared by diluting 6.562 μM stock in 1× assay buffer for a […].
Test compound(s) were run in an 11-point, 3-fold serial dilution with a final top compound concentration of 100 nM. Final DMSO in assay was 2%. FXIa was preincubated with compound for 30-minutes and then substrate was added to initiate the reaction. The assay was run with kinetic (KIN) reads at 5 min intervals over 30 minutes. […] More specifically, the assay was run as follows: • 100 nL of 0.01 mM test compound was dispensed into black 384-well non-binding Greiner BioOne 784900 plate for 0.1 μM final concentration, • 5 μL of 1× assay buffer was dispensed to column 24 (low control) and 5 μL 2× Factor XIa solution was dispensed to columns 1-23 (column 23 high control); • the plate was centrifuged with a “cover” plate at 500 rpm for 1 min • the plate was pre-incubated for 30 minutes at room temperature with plate covered; • 5 μL of 2×5Fam-KLTRAETV-K5Tamra peptide substrate was dispensed into the entire plate, columns 1-24; • the plate was centrifuged with a “cover” plate at 500 rpm for 1 min; • the plate was read monitoring fluorescence intensity on the BMG PHERAStar at room temperature, using fluorescence module 485 nm/520 nm.
(§1) Percent inhibition (IC50) curves were generated per compound tested, and data was analyzed using a 4-parameter logistic fit using GeneData Screener. The relative fluorescence unit (RFU) values were normalized to percent inhibition using the following equation: % inhibition=((HC−LC)−(compound−LC)/(HC−LC))*100
where LC—low control=mean signal of no Factor XIa or 100% inhibition of Factor XIa; HC—high control=mean signal of Factor XIa+5Fam-KLTRAETV-K5Tamra peptide substrate with DMSO only.
(§2) An 11-point dose response curve for the test compound(s) was generated using GENDATA to determine IC50 value based on the following equation: Y=Bottom+(Top−Bottom)/(1+10^((log IC50−X)*HillSlope))
where Y is the % inhibition in the presence of X inhibitor concentration, Top=high control=mean signal of Factor XIa+5Fam-KLTRAETV-K5Tamra peptide substrate with DMSO only; Bottom=low control—mean signal of no Factor XIa or 100% inhibition of Factor XIa; HillSlope—Hill coefficient; and IC50=concentration of compound with 50% inhibition in relation to top/high control.

For a further test, the target named is human plasma kallikrein (Homo sapiens, UniProt P03952). The test can be described thus: Kallikrein inhibition assay utilizing a quenched AMC peptide substrate (FLINT). The settings on record: 11-point, 3-fold serial dilution, top 1 μM; 30 min preincubation; 2 nM kallikrein; 50 μM Z-Gly-Pro-Arg-AMC; kinetic reads over 30 min. In kind it is biochemical. How it is done:
Biological Example 2: Kallikrein Inhibition Assay Utilizing a Quenched AMC Peptide Substrate
A fluorescence intensity (FLINT) based assay was used to monitor inhibition of human plasma kallikrein. The peptide substrate, Z-Gly-Pro-Arg-AMC (Purchased from Bachem; Catalog #I-1150) was chosen based on its relatively low KM for kallikrein which enables running the assay at lower substrate concentrations to control background fluorescence. The kinetic parameters for this substrate were determined by fitting titration data to the Michaelis-Menten equation yielding a KM=40 μM, kcat=0.76 s^−1, and kcat/KM=18932 M^−1s^−1.
The Kallikrein FLINT assay was used with the following Z-Gly-Pro-Arg-AMC assay buffer: 50 mM Tris, pH 7.5, 100 mM NaCl, 5 mM CaCl2, 0.1 mg/mL BSA, 0.03% CHAPS. Assay buffer was prepared by mixing all ingredients fresh. 2× Z-Gly-Pro-Arg-AMC peptide substrate was prepared by diluting 10 mM stock into 1× assay buffer for a 100 μM working concentration (50 μM final concentration). The 2× kallikrein stock solution was prepared by diluting 14.76 μM stock in 1× assay buffer for a 4 nM working stock solution (2 nM final concentration).
Test compound(s) were run in an 11-point, 3-fold serial dilution with a final top compound concentration of 1 μM. Final DMSO in assay was 2%. Plasma kallikrein was pre-incubated for 30-minute with compound and then 50 μM substrate was added to initiate the reaction. The assay was run with kinetic (KIN) reads at 5 min intervals over 30 minutes. The time course was linear using 2 nM kallikrein greater than 30 minutes. More specifically, the assay was run as follows: • 100 nL of 0.1 mM test compound was dispensed into black 384-well non-binding Greiner BioOne 784900 plate for 1 μM final concentration; • 5 μL of 1× assay buffer was dispensed to columns 24 (low control) and 5 μL 2× human kallikrein enzyme solution was dispensed to columns 1-23 (column 23 high control); • the plate was centrifuged with a “cover” plate at 500 rpm for 1 min • the plate was pre-incubated for 30 minutes at room temperature with plate covered; • 5 μL of 2× Z-Gly-Pro-Arg-AMC peptide substrate was dispensed into the entire plate, columns 1-24; • the plate was centrifuged with a “cover” plate at 500 rpm for 1 min; • the plate was read monitoring fluorescence intensity on the BMG PHERAStar at room temperature, using fluorescence module 340 nm/440 nm.
as §1
where LC—low control=mean signal of […] 100% inhibition of human kallikrein enzyme; HC—high control=mean signal of […]+Z-Gly-Pro-Arg-AMC peptide substrate with DMSO only.
as §2
where Y is the % inhibition in the presence of X inhibitor concentration, Top=high control=mean signal of human kallikrein enzyme+Z-Gly-Pro-Arg-AMC peptide substrate with DMSO only; Bottom=low control—mean signal of no human kallikrein enzyme or 100% inhibition of human kallikrein enzyme; HillSlope—Hill coefficient; and IC50=concentration of compound with 50% inhibition in relation to top/high control.

Our source for the IC50 values is patent US12286429B2, “5-oxo-1,2,3,5,8,8a-hexahydroindolizine-3-carboxamide derivatives useful as a factor XIa inhibitors” (Janssen Pharmaceutica NV, priority 2021, dated 2025).

A word on the IC50: it is the concentration needed to halve the response being measured.

Chain of human plasma kallikrein (P03952 391-638 limits assumed): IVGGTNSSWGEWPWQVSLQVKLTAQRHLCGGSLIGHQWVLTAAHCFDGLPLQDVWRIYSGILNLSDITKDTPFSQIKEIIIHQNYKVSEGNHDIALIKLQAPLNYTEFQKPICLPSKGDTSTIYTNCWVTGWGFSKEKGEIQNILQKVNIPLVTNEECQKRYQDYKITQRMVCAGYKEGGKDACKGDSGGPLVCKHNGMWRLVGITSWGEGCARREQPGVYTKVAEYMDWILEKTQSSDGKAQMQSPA
Chain of human plasma kallikrein (P03952 20-390 partner limits assumed): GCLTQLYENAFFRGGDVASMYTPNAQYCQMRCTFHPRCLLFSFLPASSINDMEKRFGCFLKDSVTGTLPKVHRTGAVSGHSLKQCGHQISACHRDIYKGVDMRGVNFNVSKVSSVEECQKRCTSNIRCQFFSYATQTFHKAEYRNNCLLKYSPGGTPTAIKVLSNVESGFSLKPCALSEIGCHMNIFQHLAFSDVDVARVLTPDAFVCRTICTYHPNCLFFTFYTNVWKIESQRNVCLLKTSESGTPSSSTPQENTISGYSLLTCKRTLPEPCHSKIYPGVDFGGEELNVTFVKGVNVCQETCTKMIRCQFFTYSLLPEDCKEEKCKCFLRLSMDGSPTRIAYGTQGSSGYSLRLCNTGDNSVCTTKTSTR
Chain of Factor XIa (P03951 388-625 limits assumed): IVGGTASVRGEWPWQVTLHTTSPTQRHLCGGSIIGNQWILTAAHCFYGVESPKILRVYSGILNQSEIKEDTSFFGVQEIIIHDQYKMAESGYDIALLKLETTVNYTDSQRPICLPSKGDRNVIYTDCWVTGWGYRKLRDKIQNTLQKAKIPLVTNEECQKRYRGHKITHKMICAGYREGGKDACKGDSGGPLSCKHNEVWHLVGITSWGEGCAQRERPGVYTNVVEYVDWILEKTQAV
Chain of Factor XIa (P03951 19-387 partner limits assumed): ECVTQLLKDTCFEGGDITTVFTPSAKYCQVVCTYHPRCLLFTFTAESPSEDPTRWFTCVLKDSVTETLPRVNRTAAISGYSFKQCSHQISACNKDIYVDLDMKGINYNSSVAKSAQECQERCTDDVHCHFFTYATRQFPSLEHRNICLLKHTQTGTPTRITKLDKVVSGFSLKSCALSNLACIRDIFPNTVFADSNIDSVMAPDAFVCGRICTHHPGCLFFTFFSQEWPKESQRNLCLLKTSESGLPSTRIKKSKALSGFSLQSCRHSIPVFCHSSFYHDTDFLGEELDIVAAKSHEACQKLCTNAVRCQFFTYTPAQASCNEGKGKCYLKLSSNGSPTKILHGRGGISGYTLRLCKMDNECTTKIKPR

Consider `O=C(Nc1ccc2ncoc2c1)[C@@H]1CCC2CC(c3c(-n4cnnn4)ccc(Cl)c3F)=CC(=O)N21` (mixture of isomers) [ID No. 54, (3S)—N-(Benzo[d]oxazol-6-yl)-7-(3-chloro-2-fluoro-6-(1H-tetrazol-1-yl)phenyl)-5-oxo-1,2,3,5,8,8a-hexahydroindolizine-3-carboxamide], for which the concentration for half-maximal inhibition (IC50) on Factor XIa stood at 0.0115 µM; against human plasma kallikrein it was 0.059 µM.

With `CC(O)c1nc2cc(NC(=O)[C@@H]3CCC4CC(c5c(-n6cnnn6)ccc(Cl)c5F)=CC(=O)N43)ccc2s1` (mixture of isomers) [compound 91], the concentration for half-maximal inhibition (IC50) on Factor XIa was over 0.05 µM; against human plasma kallikrein, 0.115 µM.

For `CC1(C)C[C@@H](C(=O)Nc2ccc3nccnc3c2)N2C(=O)C=C(c3c(-n4cnnn4)ccc(Cl)c3F)CC21` (single isomer, unassigned) [ID No. 62, (3S,8aS*)-7-[3-Chloro-2-fluoro-6-(tetrazol-1-yl)phenyl]-1,1-dimethyl-5-oxo-N-quinoxalin-6-yl-2,3,8,8a-tetrahydroindolizine-3-carboxamide], the figures for the IC50 at Factor XIa and at human plasma kallikrein were 0.0133 µM and 0.0172 µM, respectively.

Take `Nc1noc2cc(NC(=O)[C@@H]3CCC4CC(c5c(-n6cnnn6)ccc(Cl)c5F)=CC(=O)N43)ccc12` (single isomer, unassigned) [ID No. 61, (3S,8aS*)—N-(3-Amino-1,2-benzoxazol-6-yl)-7-[3-chloro-2-fluoro-6-(tetrazol-1-yl)phenyl]-5-oxo-2,3,8,8a-tetrahydro-1H-indolizine-3-carboxamide]: the figures for the half-maximal inhibitory concentration (IC50) at Factor XIa and against human plasma kallikrein were 0.0089 µM and 0.0526 µM, respectively.

`O=C(Nc1ccc2[nH]c(=O)cc(O)c2c1)[C@@H]1CCC2CC(c3c(-n4cnnn4)ccc(Cl)c3F)=CC(=O)N21` (mixture of isomers) [ID No. 64, (3S)-7-[3-Chloro-2-fluoro-6-(tetrazol-1-yl)phenyl]-N-(4-hydroxy-2-oxo-1H-quinolin-6-yl)-5-oxo-2,3,8,8a-tetrahydro-1H-indolizine-3-carboxamide]: the IC50 on Factor XIa was 0.003 µM; on human plasma kallikrein, 0.0095 µM.

Turning to `CO[C@@H]1C[C@@H](C(=O)Nc2ccc3nn(C)cc3c2)N2C(=O)C=C(c3c(-n4cnnn4)ccc(Cl)c3F)CC12` (mixture of isomers) [ID No. 44, (1R,3S)-7-[3-Chloro-2-fluoro-6-(tetrazol-1-yl)phenyl]-1-methoxy-N-(2-methyl-2H-indazol-5-yl)-5-oxo-2,3,8,8a-tetrahydro-1H-indolizine-3-carboxamide], the IC50 turned out to be 0.0109 µM at Factor XIa and 0.0314 µM at human plasma kallikrein.

For the molecule `Cc1nc(-c2ccc(NC(=O)[C@@H]3CC[C@@H]4CC(c5c(-n6cnnn6)ccc(Cl)c5F)=CC(=O)N43)cc2)no1` (single isomer, unassigned) [ID No. 50], the half-inhibitory concentration (IC50) was 0.0318 µM on Factor XIa and 0.057 µM against human plasma kallikrein.

As for `NC(=O)c1ccc(NC(=O)[C@@H]2CCC3CC(c4c(-n5cnnn5)ccc(Cl)c4F)=CC(=O)N32)cc1F` (mixture of isomers) [ID No. 39, (3S)—N-(4-Carbamoyl-3-fluorophenyl)-7-(3-chloro-2-fluoro-6-(1H-tetrazol-1-yl)phenyl)-5-oxo-1,2,3,5,8,8a-hexahydroindolizine-3-carboxamide], the values for the IC50 on Factor XIa and at human plasma kallikrein were 0.0075 µM and 0.053 µM, respectively.

Consider `O=C(Nc1ccc(-c2nnn[nH]2)cc1)[C@@H]1CCC2CC(c3c(-n4cnnn4)ccc(Cl)c3F)=CC(=O)N21` (mixture of isomers) [ID No. 72, (3S)-7-[3-Chloro-2-fluoro-6-(tetrazol-1-yl)phenyl]-5-oxo-N-[4-(1H-tetrazol-5-yl)phenyl]-2,3,8,8a-tetrahydro-1H-indolizine-3-carboxamide], for which the half-maximal inhibitory concentration (IC50) worked out at 0.0007 µM at Factor XIa and 0.0204 µM against human plasma kallikrein.

As to `O=C(Nc1ccc(-c2noc(=O)[nH]2)cc1)[C@@H]1CC[C@@H]2CC(c3c(-n4cnnn4)ccc(Cl)c3F)=CC(=O)N21` [ID No. 17, (3S,8aR)-7-(3-Chloro-2-fluoro-6-(1H-tetrazol-1-yl)phenyl)-5-oxo-N-(4-(5-oxo-4,5-dihydro-1,2,4-oxadiazol-3-yl)phenyl)-1,2,3,5,8,8a-hexahydroindolizine-3-carboxamide], the IC50 at Factor XIa was 0.0034 µM; against human plasma kallikrein, 0.0601 µM.

`O=C(Nc1ccc2ncsc2c1)[C@@H]1CCC2CC(c3c(-n4cnnn4)ccc(Cl)c3F)=CC(=O)N21` (mixture of isomers) [ID No. 55, (3S)—N-(Benzo[d]thiazol-6-yl)-7-(3-chloro-2-fluoro-6-(1H-tetrazol-1-yl)phenyl)-5-oxo-1,2,3,5,8,8a-hexahydroindolizine-3-carboxamide]: the 50% inhibitory concentration (IC50) was 0.0066 µM at Factor XIa and 0.0277 µM at human plasma kallikrein.

Take `CCn1cnc2ccc(NC(=O)[C@@H]3CC[C@@H]4CC(c5c(-n6cnnn6)ccc(Cl)c5F)=CC(=O)N43)cc2c1=O` [ID No. 14, (3S,8aR)-7-(3-Chloro-2-fluoro-6-(1H-tetrazol-1-yl)phenyl)-N-(3-ethyl-4-oxo-3,4-dihydroquinazolin-6-yl)-5-oxo-1,2,3,5,8,8a-hexahydroindolizine-3-carboxamide]: the IC50 at Factor XIa was 0.0227 µM; against human plasma kallikrein, 0.0596 µM.

`O=C(Nc1ccc(-c2nc(=O)o[nH]2)cc1F)[C@@H]1CCC2CC(c3c(-n4cnnn4)ccc(Cl)c3F)=CC(=O)N21` (mixture of isomers) [ID No. 47, (3S)-7-(3-Chloro-2-fluoro-6-(1H-tetrazol-1-yl)phenyl)-N-(2-fluoro-4-(5-oxo-2,5-dihydro-1,2,4-oxadiazol-3-yl)phenyl)-5-oxo-1,2,3,5,8,8a-hexahydroindolizine-3-carboxamide]: the IC50 at Factor XIa was determined as 0.0233 µM; on human plasma kallikrein, 0.274 µM.
